Consider 9 compounds from patent US20080031839A1, “Agent For Prermanent Hair Processing” (Showa Denko K.K., priority 2004, published 2008).

Structures can show the parent of a compound that is named as a salt.

The nature of the experiment: Permanent wave processing of hair, wave efficiency by Kilby method. Particulars: for Wave efficiency: compound at 2% in terms of reducing power of thioglycolic acid, soaked at 35° C. for 20 minutes, bromate second liquid 25° C. 10 minutes. The method, then: A permanent wave first liquid was prepared as described below using the alkoxyalkyl mercaptocarboxylate (TGE-1) obtained in Synthetic Example 1. A permanent wave second liquid was prepared as described below. Hair was permanent waved with these liquids, and the wave efficiency was obtained.
[…] The mixing was performed such that the total amount would be 100 g. A permanent wave first liquid was thus prepared.
The agent contained TGE-1 in an amount of 2% in terms of reducing power of thioglycolic acid.
5 g of sodium bromate and 95 g of purified water were mixed together to give a permanent wave second liquid.
The wave efficiency was evaluated by a Kilby method as described in Fragrance Journal Extra Edition (1984, No. 5, P. 442). A liquid containing cysteamine hydrochloride was used as the comparative agent.
Chinese hair (approximately 20 cm long) was fixed to a Kilby apparatus and was soaked in the permanent wave first liquid heated to 35° C. over a period of 20 minutes. Thereafter, the hair was lightly towel dried such that the first liquid would not drip. The hair was then given the bromate-based permanent wave second liquid, and was allowed to stand at 25° C. for 10 minutes. After the completion of the treatment with the second liquid, the hair was rinsed with running water and was removed from the Kilby apparatus, followed by drying. The dried hair was measured and the wave efficiency was determined from the following equation. Wave efficiency(%)=100−[100×(B−A)]÷(C−A) wherein:
A: Distance between the first and sixth rods of the Kilby apparatus (actual measurement value between the central points of the rods)
B: Length of six waves of curled hair
C: Length of straightened six waves of curled hair
A permanent wave first liquid was prepared as described in Example 1, except that TGE-1 was replaced with the alkoxyalkyl mercaptocarboxylate indicated in Table 1. The permanent wave first liquid contained the alkoxyalkyl mercaptocarboxylate in an amount of 2% in terms of reducing power of thioglycolic acid.
Hair was permanent waved and the wave efficiency was obtained by the procedure of Example 1 with use of the permanent wave first liquid prepared as above and the permanent wave second liquid used in Example 1.
A permanent wave first liquid was prepared as described in Example 1, except that TGE-1 was replaced with the cysteamine hydrochloride indicated in Table 1. The permanent wave first liquid contained the […] in an amount of 2% in terms of reducing power of thioglycolic acid.

Take `CCOCCOC(=O)CS` [TGE-2, 2-ethoxyethyl thioglycolate]: the Wave efficiency came out at 84% (pH 6 first liquid), 87% (pH 7.5 first liquid) and 86% (pH 9 first liquid).

Take `COCC(C)OC(=O)CS` (stereo not shown) [TGE-7, 2-methoxy-1-methylethyl thioglycolate]: the Wave efficiency (pH 6 first liquid) was 79%, the Wave efficiency (pH 7.5 first liquid) was 81% and the Wave efficiency (pH 9 first liquid) is given as 81%.

As to `CCCCOCCOC(=O)CS` [TGE-3, 2-butoxyethyl thioglycolate], the Wave efficiency runs as follows: (pH 6 first liquid) 79%; (pH 7.5 first liquid) 79%; (pH 9 first liquid) 82%.

Consider `CCOCC(C)OC(=O)CS` (stereo not shown) [TGE-8, 2-ethoxy-1-methylethyl thioglycolate], for which the Wave efficiency by setting is: (pH 6 first liquid) 80%; (pH 7.5 first liquid) 82%; (pH 9 first liquid) 83%.

As for 2-butoxyethyl thiolactate [TNE-3], the Wave efficiency is, setting by setting: (pH 6 first liquid) 73%; (pH 7.5 first liquid) 73%; (pH 9 first liquid) 72%.

As for `COCCOCCOCCOC(=O)CS` [TGE-6, 8-methoxy-3,6-dioxaoctyl thioglycolate], the Wave efficiency was found to be 63% (pH 6 first liquid), 67% (pH 7.5 first liquid) and 65% (pH 9 first liquid).

For the compound `COCCOCCOCCOC(=O)CS` [TGE-9, 8-methoxy-3,6-dioxaoctyl thioglycolate], the Wave efficiency is reported as 75% (pH 6 first liquid), 75% (pH 7.5 first liquid) and 76% (pH 9 first liquid).

With `NCCS` [Cysteamine hydrochloride, cysteamine hydrochloride, reference compound], the “Behaviour of wave efficiency across pH range” value (neutral to acidic versus alkaline pH, summary of Table 1) is “drastic deterioration of wave efficiency with the pH lowering to a neutral to acidic region”. The Wave efficiency is, setting by setting: (pH 6 first liquid) 52%; (pH 7.5 first liquid) 65%; (pH 9 first liquid) 73%.

As for `CCOCCOCCOC(=O)CS` [TGE-5, 5-ethoxy-3-oxapentyl thioglycolate], the Wave efficiency came out at 70% (pH 6 first liquid), 70% (pH 7.5 first liquid) and 71% (pH 9 first liquid).
